Test results: patent publication US7985773B2 (American Sterilizer Company, priority 2004, dated 2011)
Where “and” joins values, the source holds several entries; their conditions need not be identical. Identical values can stand only once.

Tested on: Serratia marcescens ATCC 14756
Test: Residual activity testing procedure on pigskin
Format: cell-based
Conditions: for Average Log Reduction: average of two series; for log reduction values and antimicrobial activity (in words): compositions of Table V, additive at 0.5 parts per 100 parts; for Log Value: log of colony forming units remaining; for Log Value / Log Reduction: single series; for antimicrobial activity (in words): additives of Table II in the Table I base; for antimicrobial activity (in words) / Average Series: FIG. 1; for Average Series: average log reduction of all four series
Experimental: The gram negative organism was grown for approximately 24 hours at 30° C. and then suspended in Butterfields Buffer to a count of 1×10^8. The pigskins were prepared according to the following standard of procedure. Pigskin hides are collected on the date of slaughter and processed on the same day by removing adipose tissue and thoroughly cleaning the hide. Both of these processes are accomplished by spraying both sides of the pig hide with a high pressure washer. No soap or detergents are used at any time during the processing of pig hides for laboratory use. After cleaning and de-fatting, pigskins are placed in water and frozen at the farm from which they were harvested. When required for laboratory testing, a representative procures the hides and thaws them for laboratory manipulation. In the laboratory, these hides are cut into manageable pieces with a scalpel and coarse hair removed with animal grooming clippers. Disposable razors are further employed to create a smooth surface without negatively affecting the skin surface. These pieces are then sterilized by Gamma irradiation and kept frozen until use in a study. Testing circles were then punched out of the pigskins and glued to a phenolic cap. The testing samples were placed in a 30° C. oven to equilibrate for at least 20 minutes. Each skin was treated with 150 μl of test product and rubbed for 30 seconds as a pair, skin to skin. The skins were allowed to dry for 30 seconds and then the test product was reapplied four times in the same manner. The skins were allowed to dry in a slightly opened hood for 15 minutes. After drying the skins were inoculated with 31 μl of the Serratia marcescens inoculum, as prepared above, rubbed for 15 seconds, and sampled after three minutes. To sample, a sterile 3.5 cm diameter cylinder is placed, lip side down, over the pigskin on the cap. Enough pressure is applied to the cylinder to prevent any leakage upon the addition of an appropriate volume of liquid sampling solution to the cylinder. The skin is then debrided, using a sterile policeman, for 30 seconds by rubbing the surface of the skin with the flat edge of the policeman with enough pressure to remove any microorganisms that might be on the surface. Two mL of the sampling solution are removed using a sterile pipet and are utilized for preparing serial dilutions and aerobic plate counts to establish the number of Colony Forming Units remaining.

[1] = additive at 0.5 parts by weight per 100 parts total composition in the Table I base, FIG. 2
[2] = additive at 0.5 parts by weight per 100 parts total composition in the Table I base
[3] = additive at the active % listed in Table III in the Table I base
[4] = additive at the active % listed in Table III in the Table I base, pigskin residual activity

Row | Compound | Average Log Reduction [1] | Log Value [2] | Log Reduction [2] | Average Series [3] | other results
1 | CCCCCCCCCCCCCCCCCCCCCC[N+](C)(C)Cc1ccccc1.[Cl-] [Behenalkonium chloride, Behenalkonium Chloride] | 4.41 | 1.60 and 1.78 | 4.50 and 4.32 |  | log reduction values and antimicrobial activity (in words): excellent log reduction values
2 | CCCCCCCCCCCCCCCCCCCCCC[N+](C)(C)C.[Cl-] [Behentrimonium chloride] | 0.33 | 5.78 and 5.76 | 0.32 and 0.34 |  | 
3 | CCCCCCCCCCCCCCCCCCCCCC[N+](C)(C)C.COS(=O)(=O)[O-] [Behentrimonium methosulfate] | 5.25 |  |  | 5.39 | antimicrobial activity (in words): enhanced antimicrobial activity; log reduction values and antimicrobial activity (in words): excellent log reduction values
4 | CC(C)(C)CC(C)(C)c1ccc(OCCOCC[N+](C)(C)Cc2ccccc2)cc1 [Benzethonium Chloride, Benzethonium chloride] |  |  |  | 0.17 | 
5 | CCCCCCCCCCCCCCCC[N+](C)(C)C.[Cl-] [Cetrimonium chloride] | 1.24 | 4.87 and 4.85 | 1.23 and 1.25 |  | 
6 | C[N+](C)(C)CCCNC(=O)C=Cc1ccccc1.[Cl-] [Cinnamidopropyl trimethylammonium chloride] | 0.05 | 5.98 and 6.12 | 0.12 and −0.02 |  | 
7 | CCCCCCCCCC(=O)OCC(O)CO (stereo not shown) [Glyceryl caprate] |  | 5.17 and 5.19 |  |  | 
8 | CCCCCCCCCCCC(=O)OCC(O)CO (stereo not shown) [Glyceryl monolaurate] |  |  |  | −0.21 | 
9 | CCCCCCCCCCCCCCCCCCCCCC(=O)NCCC[N+](C)(C)CCO.[Cl-] [Hydroxyethyl behenamidopropyldimonium chloride] | 0.63 |  |  |  | 
10 | COC(=O)c1ccc(O)cc1 [Methyl paraben] |  |  |  | 0.03 | 
11 | CCCCCCCC/C=C\CCCCCCCC[N+](C)(C)Cc1ccccc1.[Cl-] [Olealkonium chloride, Olealkonium Chloride] | 0.31 | 5.76 and 5.81 | 0.34 and 0.29 |  | 
12 | Cc1cc(O)cc(C)c1Cl [PCMX] |  |  |  | 0.16 | Average Log Reduction [4]: 0.06 and 0.26
13 | OCCOc1ccccc1 [Phenoxyethanol, Phenoxyethanol (ethylene glycol phenyl ether)] |  |  |  | 3.39 | antimicrobial activity (in words): enhanced antimicrobial activity
14 | CCCOC(=O)c1ccc(O)cc1 [Propyl paraben] |  |  |  | 0.40 | 
15 | CCCCCCCCCCCCCCCCCC[N+](C)(C)Cc1ccccc1.[Cl-] [Stearalkonium chloride] | 0.25 | 5.93 and 5.77 | 0.17 and 0.33 |  | 
16 | CC(O)C(=O)O.CCCCCCCCCCCCCCCCCC(=O)NCCCN(C)C [Stearamidopropyl dimethylamine lactate] |  | 6.22 and 6.05 |  |  | 
17 | Oc1cc(Cl)ccc1Oc1ccc(Cl)cc1Cl [Triclosan] |  |  |  | −0.04 | 
18 | Babbassuamidopropalkonium Chloride | 0.35 | 5.82 and 5.68 | 0.28 and 0.42 |  | 
19 | Cocoamidopropyl PG dimonium chloride |  |  |  | −0.04 | Average Log Reduction [4]: −0.13 and 0.04
20 | IPEG-3 Dioleylamidoethylmonium methosulfate | 0.27 | 5.84 and 5.81 | 0.26 and 0.29 |  | 
21 | Isostearyamidopropyl morpholine lactate | −0.09 | 6.17 and 6.20 | −0.07 and −0.10 |  | 
22 | Quaternium 26 | −0.07 | 6.20 and 6.13 | −0.11 and −0.03 |  | 
23 | Sodium Coco PG-Dimonium chloride phosphate | 0.40 | 5.69 and 5.71 | 0.41 and 0.39 |  | 
